Results: patent US20090005424A9, “Composition and Method for Treating Fibrotic Diseases” (priority 2005, published 2009)
Marks after values point to notes of the source that are not given here.

Tests used:
[1] = system: Human Peritoneal Mesothelial Cells; assay: MTT proliferation assay, human peritoneal mesothelial cells; type: cell-based
Description: (§1) In the following examples, myocardiac fibroblasts, skin scar forming fibroblast and human peritoneal mesothelial cells are primary cultures prepared according to common procedure. Other cells are commercially purchased. 1-(3-fluorophenyl)-5-methyl-2(1H)-pyridone (AKF-PD) is prepared as a suspension in 5% carboxymethylcellulose.
(§2) Cell proliferation was measured by MTT assay. DMEM with 10% fetal serum was used as cell culture medium. The cells were prepared in suspension (1×10^5/ml), and 100 μL of the suspension was transferred to each well of a 96 wells plate. Once the cells were attached to the plastic, the culture was changed to serum free medium and incubated for another 24 hours. Then, the serum free medium was aspirated, and various concentrations of 1-(3′-fluorophenyl)-5-methyl-2(1H)-pyridone (AKF-PD) or PIRFENIDONE (PFD) in 10% serum medium were added into each well with 5 replicates for each concentration. The cells were stained with MTT (10 μL per well) at 12, 22, or 48 hours post drug treatment. After 4 hrs of incubation, the medium with MTT was aspirated from each well. One hundred μL MTT solvent was added to each well for 15 min, and the dissolved MTT was measured with a plate reader at 570 nm.

fibroblast = assay: Inhibition of fibroblast, side-by-side comparison of substituents; type: cell-based; details: structural formula II, n=1
[2] = Acute oral toxicity in Kun Ming mice, LD50 by Bliss method; details: both sexes, Kun Ming (KM), mouse, in vivo, po
Description: Male and female Kun Ming (KM) mice weighing between 18 g-22 g were acquired from the animal facility of Hsiang-Ya Medical College, the Central South University. Fifty Kun Ming mice were randomly assigned into 5 groups with 5 male and 5 female mice for each group. The animals went through fasting with a normal water supply before starting drug treatment (either AKF-PD or PIRFENIDONE). The drug was administrated orally by gavage. The volume of liquid drug was 20 ml/kg body weight. The range of dosage for AKF-PD administrated was from 1071 mg/kg to 6000 mg/kg. The dosage difference between two adjacent doses was 1:0.65 (a dose vs the next lower dose). All animals were maintained under a regular condition. Acute toxic reaction and death within 14 days of post drug treatment were recorded. Autopsy was performed on all dead animals and visual examination was performed on all organs.
LD50 was calculated according to Bliss method. […] The results of Table 15 are very close to those reported in the literature: 997.7 mg/kg (U.S. Pat. No. 5,310,562) and 1112 mg/kg(Pharmaceutical Care and Research 5:4823(2005)).

[3] = system: Rat Pulmonary Fibroblasts; assay: MTT proliferation assay, rat pulmonary fibroblasts; type: cell-based; details: for order of inhibitory effect: rat pulmonary fibroblasts
Description: as §2, with “(AKF-PD) or 1-(3′-bromophenyl)-5-Methyl-2(1H)-Pyridone or PIRFENIDONE (PFD)” for “(AKF-PD) or PIRFENIDONE (PFD)”, “well) at 24, or 48” for “well) at 12, 22, or 48”

[4] = system: Rat Myocardiac Fibroblasts; assay: MTT proliferation assay, rat myocardiac fibroblasts; type: cell-based
Description: as §1
as §2, with “24,” for “22,”

[5] = system: TGF-β production and type I & III collagen accumulation in rat UUO model; assay: Rat UUO model, immunohistochemistry of TGF-β and type I & III collagen; type: in vivo; details: kidney of UUO rats
Description: Similar to the example 8, Kidney fibrosis was induced by Unilateral Ureteral Obstruction. And the animal experiments were performed to investigate whether AKF-PD has any effect on TGF-β production and collagen accumulation. These are two known factors for fibrotic lesion.
As shown by FIG. 1, sections A-C were immunohistochemically stained with specific antibody against TGF-β with brown color indicating TGF-β protein expression in kidney cells. All sections were also counterstained lightly with hematoxylin for viewing non-TGF-β stained cells.
Also shown by FIG. 2, type I and III collagen were analyzed by immunohistochemistry. The typical fibrotic fiber was viewed as brown color. There are a […] accumulation of both type I (B) and type III (E) collagen on the fibrotic kidney of UUO model. […] Reduced collagen level can be interpreted as the reduced ECM.

SMILES: Cc1ccc(=O)n(-c2cccc(F)c2)c1 [AKF-PD, 1-(3′-fluorophenyl)-5-methyl-2(1H)-pyridone]
- Optical Density at 570 nm ([1]; 100 μg/ml, 12 h): 0.344 ± 0.004
- Optical Density at 570 nm ([1]; 100 μg/ml, 24 h): 0.583 ± 0.004
- Optical Density at 570 nm ([1]; 100 μg/ml, 48 h): 0.807 ± 0.007
- Optical Density at 570 nm ([1]; 500 μg/ml, 12 h): 0.344 ± 0.005
- Optical Density at 570 nm ([1]; 500 μg/ml, 24 h): 0.573 ± 0.004
- Optical Density at 570 nm ([1]; 500 μg/ml, 48 h): 0.758 ± 0.010
- Optical Density at 570 nm ([1]; 1000 μg/ml, 12 h): 0.343 ± 0.004
- Optical Density at 570 nm ([1]; 1000 μg/ml, 24 h): 0.553 ± 0.004
- Optical Density at 570 nm ([1]; 1000 μg/ml, 48 h): 0.704 ± 0.003
- Optical Density at 570 nm ([1]; 2500 μg/ml, 12 h): 0.346 ± 0.005
- Optical Density at 570 nm ([1]; 2500 μg/ml, 24 h): 0.502 ± 0.003
- Optical Density at 570 nm ([1]; 2500 μg/ml, 48 h): 0.646 ± 0.006
- anti-proliferative potency compared with PIRFENIDONE ([1]; human peritoneal mesothelial cells): more potent anti-proliferative agent than PIRFENIDONE
- activity inhibiting fibroblast (fibroblast): activities inhibiting fibroblast
- LD50 at 14 days ([2]; LD50): 2980 mg/kg
- LD50 at 14 days ([2]; LD50 95% confidence limit): 2400 to 3700 mg/kg
- suppression of proliferation of rat pulmonary fibroblasts [3]: could suppress proliferation of rat pulmonary fibroblasts
- Optical Density at 570 nm ([3]; 100 μg/ml, 24 h): 0.1467 ± 0.0138
- Optical Density at 570 nm ([3]; 100 μg/ml, 48 h): 0.1369 ± 0.0115
- Optical Density at 570 nm ([3]; 500 μg/ml, 24 h): 0.1258 ± 0.0119
- Optical Density at 570 nm ([3]; 500 μg/ml, 48 h): 0.1214 ± 0.0234
- Optical Density at 570 nm ([3]; 1000 μg/ml, 24 h): 0.1130 ± 0.0163
- Optical Density at 570 nm ([3]; 1000 μg/ml, 48 h): 0.1119 ± 0.0285
- order of inhibitory effect [3]: AKF-PD>AKF-BR>pirfenidone
- Optical Density at 570 nm ([4]; 100 μg/ml, 12 h): 0.328 ± 0.010
- Optical Density at 570 nm ([4]; 100 μg/ml, 24 h): 0.426 ± 0.006
- Optical Density at 570 nm ([4]; 100 μg/ml, 48 h): 0.620 ± 0.018
- Optical Density at 570 nm ([4]; 500 μg/ml, 12 h): 0.326 ± 0.003
- Optical Density at 570 nm ([4]; 500 μg/ml, 24 h): 0.408 ± 0.009
- Optical Density at 570 nm ([4]; 500 μg/ml, 48 h): 0.580 ± 0.014
- Optical Density at 570 nm ([4]; 1000 μg/ml, 12 h): 0.332 ± 0.006
- Optical Density at 570 nm ([4]; 1000 μg/ml, 24 h): 0.392 ± 0.008
- Optical Density at 570 nm ([4]; 1000 μg/ml, 48 h): 0.538 ± 0.009
- Optical Density at 570 nm ([4]; 2500 μg/ml, 12 h): 0.325 ± 0.008
- Optical Density at 570 nm ([4]; 2500 μg/ml, 24 h): 0.377 ± 0.013
- Optical Density at 570 nm ([4]; 2500 μg/ml, 48 h): 0.514 ± 0.005
- anti-proliferative potency compared with PIRFENIDONE ([4]; rat myocardiac fibroblasts): more potent anti-proliferative agent than PIRFENIDONE
- TGF-β production (immunohistochemistry, FIG. 1) [5]: significantly reduced TGF-β production
- type I and III collagen accumulation or production (immunohistochemistry, FIG. 2) [5]: significantly blocks type I and III collagen accumulation or production

SMILES: Cc1ccc(=O)n(-c2ccccc2)c1 [PFD, 5-methyl-1-phenyl-2(1H)-pyridone, reference compound]
- Optical Density at 570 nm ([1]; 100 μg/ml, 12 h): 0.346 ± 0.006
- Optical Density at 570 nm ([1]; 100 μg/ml, 24 h): 0.584 ± 0.005
- Optical Density at 570 nm ([1]; 100 μg/ml, 48 h): 0.810 ± 0.006
- Optical Density at 570 nm ([1]; 500 μg/ml, 12 h): 0.343 ± 0.004
- Optical Density at 570 nm ([1]; 500 μg/ml, 24 h): 0.577 ± 0.003
- Optical Density at 570 nm ([1]; 500 μg/ml, 48 h): 0.766 ± 0.004
- LD50 at 14 days ([2]; LD50): 955 mg/kg
- LD50 at 14 days ([2]; LD50 95% confidence limit): 551 to 1660 mg/kg
- Optical Density at 570 nm ([3]; 100 μg/ml, 24 h): 0.2023 ± 0.0169
- Optical Density at 570 nm ([3]; 100 μg/ml, 48 h): 0.1864 ± 0.0530
- Optical Density at 570 nm ([3]; 500 μg/ml, 24 h): 0.1887 ± 0.0130
- Optical Density at 570 nm ([3]; 500 μg/ml, 48 h): 0.1459 ± 0.0255
- Optical Density at 570 nm ([3]; 1000 μg/ml, 24 h): 0.1797 ± 0.0166
- Optical Density at 570 nm ([3]; 1000 μg/ml, 48 h): 0.1269 ± 0.0302
- order of inhibitory effect [3]: AKF-PD>AKF-BR>pirfenidone
- Optical Density at 570 nm ([4]; 100 μg/ml, 12 h): 0.330 ± 0.014
- Optical Density at 570 nm ([4]; 100 μg/ml, 24 h): 0.429 ± 0.009
- Optical Density at 570 nm ([4]; 100 μg/ml, 48 h): 0.654 ± 0.007*^+
- Optical Density at 570 nm ([4]; 500 μg/ml, 12 h): 0.329 ± 0.013
- Optical Density at 570 nm ([4]; 500 μg/ml, 24 h): 0.411 ± 0.006
- Optical Density at 570 nm ([4]; 500 μg/ml, 48 h): 0.612 ± 0.014***^++
- Optical Density at 570 nm ([4]; 1000 μg/ml, 12 h): 0.331 ± 0.009
- Optical Density at 570 nm ([4]; 1000 μg/ml, 24 h): 0.403 ± 0.010**^+
- Optical Density at 570 nm ([4]; 1000 μg/ml, 48 h): 0.597 ± 0.013***^+++
- Optical Density at 570 nm ([4]; 2500 μg/ml, 12 h): 0.329 ± 0.008
- Optical Density at 570 nm ([4]; 2500 μg/ml, 24 h): 0.392 ± 0.009**^+
- Optical Density at 570 nm ([4]; 2500 μg/ml, 48 h): 0.566 ± 0.027
